According to ChEMBL document CHEMBL1130492 (Bioorg Med Chem Lett, 1997):

What was measured:
[1] = system: Rattus norvegicus; test: (§1) In vivo antipsychotic activity determined for dose ip by CAR (conditioned avoidance response) assay; type: functional; design: unit not given here
[2] = species on record: Rattus norvegicus; test: Percent of radioactive dose in urine and feces excreted in 0-24 hr by rats; type: ADME, organism-based; conditions: in vivo
[3] = species on record: Canis familiaris; test: Percent of radioactive dose in urine and feces excreted by 0-24 hr in dogs; type: ADME, organism-based, Canis lupus familiaris; conditions: dog, in vivo
[4] = biological target: D(2) dopamine receptor (Rattus norvegicus, UniProt P61169); test: In vitro ability to displace Dopamine D2 receptor binding to rat striatal membranes in competition experiments against 3H-spiperone, expressed as Ki; design: species or system Striatum, Membrane
[5] = biological target: T1, Adrenergic receptor alpha-1 (Rattus norvegicus, UniProt P15823+P23944+P43140); test: In vitro ability to displace Alpha-1 adrenergic receptor binding to rat cerebral cortex in competition experiments against [3H]prazosin […], expressed as Ki.
T1 sequence (P15823 whole entry): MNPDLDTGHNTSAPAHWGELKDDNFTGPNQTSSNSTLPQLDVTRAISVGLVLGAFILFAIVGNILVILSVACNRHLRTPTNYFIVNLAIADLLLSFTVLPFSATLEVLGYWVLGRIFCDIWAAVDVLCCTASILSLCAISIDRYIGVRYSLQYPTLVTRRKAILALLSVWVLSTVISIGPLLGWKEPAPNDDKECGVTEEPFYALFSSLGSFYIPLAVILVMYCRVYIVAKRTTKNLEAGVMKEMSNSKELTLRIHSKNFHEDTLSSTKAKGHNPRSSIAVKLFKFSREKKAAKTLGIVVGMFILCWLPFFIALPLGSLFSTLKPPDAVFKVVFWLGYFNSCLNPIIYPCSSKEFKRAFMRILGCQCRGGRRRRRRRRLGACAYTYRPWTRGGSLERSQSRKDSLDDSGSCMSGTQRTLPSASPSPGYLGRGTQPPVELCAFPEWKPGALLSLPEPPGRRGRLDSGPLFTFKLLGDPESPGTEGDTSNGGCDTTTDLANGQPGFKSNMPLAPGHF
T1 sequence (P23944 whole entry): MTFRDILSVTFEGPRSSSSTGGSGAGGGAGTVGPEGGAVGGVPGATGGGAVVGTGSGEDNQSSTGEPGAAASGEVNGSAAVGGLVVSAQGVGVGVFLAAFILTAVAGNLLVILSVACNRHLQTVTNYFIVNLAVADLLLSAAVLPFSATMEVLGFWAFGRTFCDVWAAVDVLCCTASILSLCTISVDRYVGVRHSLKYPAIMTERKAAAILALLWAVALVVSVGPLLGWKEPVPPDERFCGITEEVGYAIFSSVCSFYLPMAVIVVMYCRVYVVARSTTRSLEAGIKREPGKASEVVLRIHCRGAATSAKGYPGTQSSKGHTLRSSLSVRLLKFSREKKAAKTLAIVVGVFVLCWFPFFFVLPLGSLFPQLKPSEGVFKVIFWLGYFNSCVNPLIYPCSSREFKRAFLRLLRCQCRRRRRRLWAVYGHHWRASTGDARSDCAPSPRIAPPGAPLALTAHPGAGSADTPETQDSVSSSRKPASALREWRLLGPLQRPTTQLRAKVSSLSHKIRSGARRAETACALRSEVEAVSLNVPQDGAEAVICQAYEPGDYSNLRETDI
T1 sequence (P43140 whole entry): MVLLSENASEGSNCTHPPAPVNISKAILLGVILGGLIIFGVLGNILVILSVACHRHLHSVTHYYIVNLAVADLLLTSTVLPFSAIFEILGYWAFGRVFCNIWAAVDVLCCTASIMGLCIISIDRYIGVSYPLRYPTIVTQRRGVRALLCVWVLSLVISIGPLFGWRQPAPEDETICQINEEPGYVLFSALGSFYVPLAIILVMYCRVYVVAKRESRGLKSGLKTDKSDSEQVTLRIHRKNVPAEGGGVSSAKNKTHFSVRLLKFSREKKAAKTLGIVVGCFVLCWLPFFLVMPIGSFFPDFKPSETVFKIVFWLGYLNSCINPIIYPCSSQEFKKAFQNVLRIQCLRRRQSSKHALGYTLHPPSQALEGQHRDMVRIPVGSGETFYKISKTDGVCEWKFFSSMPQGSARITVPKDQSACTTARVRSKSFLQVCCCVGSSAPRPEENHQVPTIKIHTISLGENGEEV

[6] = species on record: Rattus norvegicus; test: Percent of radioactive dose in urine and feces excreted in 0-24 hr by rats; NA is <10% inhibition at 1 uM for binding data; type: ADME, organism-based; conditions: in vivo
[7] = species on record: Canis familiaris; test: Percent of radioactive dose in urine and feces excreted by 0-24 hr in dogs; NA is <10% inhibition at 1 uM for binding data; type: ADME, organism-based, Canis lupus familiaris; conditions: dog, in vivo
[8] = biological target: T2, 5-hydroxytryptamine receptor 1A (Rattus norvegicus, UniProt P19327); test: In vitro ability to displace serotonin 5-HT1A receptor binding to rat cerebral cortex in competition experiments against [3H]8-(hydroxy)dipropyl aminotetralin at 15 mg/kg concentration
T2 sequence (P19327 whole entry): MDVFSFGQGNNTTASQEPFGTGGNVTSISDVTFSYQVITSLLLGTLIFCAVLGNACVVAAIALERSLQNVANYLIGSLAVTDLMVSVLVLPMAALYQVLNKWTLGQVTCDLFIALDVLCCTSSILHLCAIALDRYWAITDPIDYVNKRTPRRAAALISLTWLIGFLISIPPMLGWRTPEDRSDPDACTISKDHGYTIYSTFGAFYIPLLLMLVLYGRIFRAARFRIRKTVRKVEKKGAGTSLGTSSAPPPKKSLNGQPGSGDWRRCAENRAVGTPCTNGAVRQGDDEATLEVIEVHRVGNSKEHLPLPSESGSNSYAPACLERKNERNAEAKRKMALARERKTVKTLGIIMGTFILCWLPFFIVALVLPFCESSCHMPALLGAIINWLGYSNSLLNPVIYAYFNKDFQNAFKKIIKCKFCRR

[9] = biological target: T2, 5-hydroxytryptamine receptor 1A; test: In vitro ability to displace serotonin 5-HT1A receptor binding to rat cerebral cortex in competition experiments against [3H]8-(hydroxy)dipropyl aminotetralin at 1 mg/kg concentration
[10] = biological target: T1, Adrenergic receptor alpha-1; test: In vitro ability to displace Alpha-1 adrenergic receptor binding to rat cerebral cortex in competition experiments against [3H]-prazosin, expressed as Ki.
[11] = biological target: D(2) dopamine receptor (Rattus norvegicus) (UniProt P61169); test: In vitro ability to displace Dopamine D2 receptor binding to rat striatal membranes in competition experiments against [3H]spiperone at 1 uM concentration; conditions: Striatum, Membrane
[12] = biological target: T3, 5-hydroxytryptamine receptor 1A (Rattus norvegicus) (UniProt P19327); test: In vitro ability to displace serotonin 5-HT1A receptor binding to rat cerebral cortex in competition experiments against [3H]8-(hydroxy)dipropyl aminotetralin at 1 uM concentration; type: tissue-based
T3 sequence (whole entry): T2 sequence (P19327 whole entry)

[13] = biological target: Adrenergic receptor alpha-1 (Rattus norvegicus) (UniProt P15823+P23944+P43140); test: In vitro ability to displace Alpha-1 adrenergic receptor binding to rat cerebral cortex in competition experiments against [3H]prazosin at 1 µM, expressed as % inhibition.
[14] = system: Rattus norvegicus; test: as §1; type: functional
[15] = species on record: Rattus norvegicus; test: Percent of radioactive dose in urine and faeces excreted in 0-24 hr by rats; type: ADME, organism-based, Urine/Feces; conditions: in vivo
[16] = species on record: Canis familiaris; test: Percent of radioactive dose in urine and faeces excreted in 0-24 hr by dogs; type: ADME, organism-based, Canis lupus familiaris, Urine/Feces; conditions: dog, in vivo
[17] = species on record: Canis familiaris; test: Percent of radioactive dose in urine and feces excreted in 0-24 hr by dogs; NA is <10% inhibition at 1 uM for binding data; type: ADME, organism-based, Canis lupus familiaris; conditions: dog, in vivo

Chain of D(2) dopamine receptor (P61169 whole entry): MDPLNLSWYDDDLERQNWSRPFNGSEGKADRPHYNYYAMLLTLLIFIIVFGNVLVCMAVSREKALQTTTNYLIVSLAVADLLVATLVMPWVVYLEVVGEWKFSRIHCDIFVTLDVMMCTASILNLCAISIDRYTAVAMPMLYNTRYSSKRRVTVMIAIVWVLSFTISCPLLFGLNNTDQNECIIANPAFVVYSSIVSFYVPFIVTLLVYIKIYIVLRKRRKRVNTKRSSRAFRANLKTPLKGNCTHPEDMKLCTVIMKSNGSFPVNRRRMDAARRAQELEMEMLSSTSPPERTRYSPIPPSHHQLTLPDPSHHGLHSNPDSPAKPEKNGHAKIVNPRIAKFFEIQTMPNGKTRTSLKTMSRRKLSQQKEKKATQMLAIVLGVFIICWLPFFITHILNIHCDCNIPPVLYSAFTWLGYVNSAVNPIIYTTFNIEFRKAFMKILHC
Chain of D(2) dopamine receptor (Rattus norvegicus) (P61169 whole entry): as above

Row | Dose [2] | Dose [3] | Ki [4] | Ki [5] | Dose [6] | Ki [8] | SMILES | CAR [1] | other results
1 |  |  | 8.8 nM | 21 nM | < 2% | 6.8 nM | CC(C)Oc1ccccc1N1CCN(Cc2cccc(C(=O)N3CCCC(O)C3)c2)CC1 (stereo not given) | -96 | Dose [7]: < 2%
2 | 3% | 3% | 11 nM |  |  |  | CC(C)Oc1ccccc1N1CCN(Cc2cccc(C(=O)N3CCC(O)CC3)c2)CC1 | -76 | Ki [9]: 7.8 nM; Ki [10]: 3.6 nM

More lines, now with the values behind:

Row | SMILES | Dose [2] | Dose [3] | Ki [4] | Ki [5] | Dose [6] | Ki [8] | CAR [1] | other results
3 | CC(C)Oc1cc(O)ccc1N1CCN(Cc2cccc(C(=O)N3CCCCC3)c2)CC1 | 13% | 3% |  |  |  |  | -10 | 
4 | O=C(O)c1cccc(C(=O)N2CCCCC2)c1 | 11% | 8% |  |  |  |  | -3 | inhibition [11]: < 10%; inhibition [12]: < 10%; inhibition [13]: < 10%
5 | CC(C)Oc1ccccc1N1CCN(Cc2cccc(C(=O)N3CCCCC3)c2)CC1 [MAZAPERTINE] |  |  |  |  |  |  |  | CAR [14]: -92; Dose [15]: 4%; Dose [16]: 5%
6 | CC(C)Oc1ccccc1N1CCN(Cc2cccc(C(=O)N3CCCCC3O)c2)CC1 (stereo not given) |  |  | 9 nM | 4 nM | < 2% | 3 nM | -64 | Dose [17]: < 2%
